Laboratory results: ChEMBL document CHEMBL1136063, “Oxal hydroxamic acid derivatives with inhibitory activity against matrix metalloproteinases” (Bioorg Med Chem Lett, 2002)

Legend:
[1] = molecular target: T1, Matrix metalloproteinase-14 (Homo sapiens, UniProt P50281); test: Percent remaining enzyme activity (RA) in catalytic domains of the membrane type MT1-MMP (matrix metalloprotease-14); set-up: concentration or dose not given beside the values
[2] = molecular target: T2, Matrix metalloproteinase-9 (Homo sapiens, UniProt P14780); test: Inhibitory activity against human gelatinase B (matrix metalloprotease-9)
Neutrophil collagenase [3] = molecular target: T3, Neutrophil collagenase (Homo sapiens, UniProt P22894); test: Percent remaining enzyme activity (RA) in neutrophil collagenase (matrix metalloprotease-8); set-up: concentration or dose not given beside the values
Target sequence in this assay (P22894 101-467 limits assumed): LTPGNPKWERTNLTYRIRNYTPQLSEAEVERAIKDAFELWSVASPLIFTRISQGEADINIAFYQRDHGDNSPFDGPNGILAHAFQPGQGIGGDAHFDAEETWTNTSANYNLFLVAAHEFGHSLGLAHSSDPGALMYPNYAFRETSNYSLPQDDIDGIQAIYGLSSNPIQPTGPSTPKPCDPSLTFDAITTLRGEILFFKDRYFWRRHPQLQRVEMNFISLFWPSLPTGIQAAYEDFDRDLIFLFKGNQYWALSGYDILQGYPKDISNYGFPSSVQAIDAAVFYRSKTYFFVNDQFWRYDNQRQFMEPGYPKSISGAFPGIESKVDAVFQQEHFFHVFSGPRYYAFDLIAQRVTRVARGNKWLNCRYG

[4] = molecular target: T2, Matrix metalloproteinase-9; test: Percent remaining enzyme activity (RA) in human gelatinase B (matrix metalloprotease-9); set-up: concentration or dose not given beside the values
[5] = molecular target: T1, Matrix metalloproteinase-14; test: (§1) Inhibition of membrane type MT1-MMP (Matrix metalloprotease-14)catalytic domain
Neutrophil collagenase [6] = molecular target: T3, Neutrophil collagenase; test: Tested for its inhibitory activity against neutrophil collagenase (Matrix metalloprotease-8)
Target sequence in this assay (P22894 whole entry): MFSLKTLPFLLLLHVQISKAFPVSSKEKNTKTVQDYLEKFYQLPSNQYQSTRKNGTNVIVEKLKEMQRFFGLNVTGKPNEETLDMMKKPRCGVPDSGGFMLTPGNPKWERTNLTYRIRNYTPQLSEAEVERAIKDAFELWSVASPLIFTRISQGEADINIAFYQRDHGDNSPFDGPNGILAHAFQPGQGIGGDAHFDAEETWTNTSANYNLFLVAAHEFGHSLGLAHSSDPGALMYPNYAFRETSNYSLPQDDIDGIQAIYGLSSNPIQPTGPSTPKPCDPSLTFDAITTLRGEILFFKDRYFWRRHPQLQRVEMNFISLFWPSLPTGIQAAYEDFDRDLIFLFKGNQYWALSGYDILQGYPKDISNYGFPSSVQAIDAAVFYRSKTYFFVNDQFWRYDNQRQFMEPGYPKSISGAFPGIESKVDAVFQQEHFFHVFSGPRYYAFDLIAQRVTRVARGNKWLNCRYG

[7] = molecular target: T1, Matrix metalloproteinase-14; test: as §1; settings: concentration not given here

T2 sequence (P14780 whole entry): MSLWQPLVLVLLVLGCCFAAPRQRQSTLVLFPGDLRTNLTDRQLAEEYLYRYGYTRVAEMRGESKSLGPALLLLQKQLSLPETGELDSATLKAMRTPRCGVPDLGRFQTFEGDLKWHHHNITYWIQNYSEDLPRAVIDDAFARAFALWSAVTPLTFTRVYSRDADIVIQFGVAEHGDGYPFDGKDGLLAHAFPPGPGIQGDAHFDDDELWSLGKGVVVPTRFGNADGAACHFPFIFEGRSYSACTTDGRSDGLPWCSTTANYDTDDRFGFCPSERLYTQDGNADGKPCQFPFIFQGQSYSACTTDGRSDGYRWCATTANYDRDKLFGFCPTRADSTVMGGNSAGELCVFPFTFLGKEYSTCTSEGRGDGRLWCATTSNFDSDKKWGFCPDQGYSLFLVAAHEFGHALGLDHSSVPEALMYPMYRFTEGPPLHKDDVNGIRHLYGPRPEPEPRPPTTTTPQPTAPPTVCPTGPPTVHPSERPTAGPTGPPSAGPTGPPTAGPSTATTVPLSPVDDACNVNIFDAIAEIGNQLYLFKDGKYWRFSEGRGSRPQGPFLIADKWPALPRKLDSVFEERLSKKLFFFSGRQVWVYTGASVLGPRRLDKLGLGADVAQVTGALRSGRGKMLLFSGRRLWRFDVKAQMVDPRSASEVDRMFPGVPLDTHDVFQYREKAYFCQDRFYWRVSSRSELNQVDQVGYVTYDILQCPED

Row | SMILES | residual activity [1] | Ki [2] | residual activity (Neutrophil collagenase [3]) | residual activity [4] | Ki [5] | Ki (Neutrophil collagenase [6]) | inhibition [7]
1 | CN(C)C(=O)[C@H](Cc1cccc2ccccc12)NC(=O)C(=O)NO | 26% | 8.2 µM | 47% | 15% | – | – | –
2 | CCCC[C@H](NC(=O)C(=O)NO)C(=O)N[C@H](Cc1ccc(OCc2ccccc2)cc1)C(=O)N(C)C | 29% | 7.5 µM | 34% | 13% | 33 µM | – | –
3 | C[C@H](NC(=O)[C@H](Cc1ccc(OCc2ccccc2)cc1)NC(=O)C(=O)NO)c1ccccc1 | 69% | – | 5% | 11% | – | – | –
4 | C[C@@H](NC(=O)C(=O)NO)c1ccc2ccccc2c1 | 54% | 3.3 µM | 43% | 7% | – | – | –
5 | CN(C)C(=O)[C@H](Cc1c[nH]c2ccccc12)NC(=O)C(=O)NO | 33% | 4.4 µM | 44% | 25% | 15 µM | 28 µM | –
6 | CC(OCc1ccccc1)[C@H](NC(=O)C(=O)NO)C(=O)N[C@@H](C)c1ccccc1 (some centres undefined) | 71% | 3.2 µM | 8% | 11% | – | 3 µM | –
7 | CN(C)C(=O)[C@H](Cc1ccc2ccccc2c1)NC(=O)C(=O)NO | 30% | 44 µM | 15% | 19% | – | 6 µM | –
8 | C[C@H](NC(=O)[C@H](Cc1ccccc1)NC(=O)C(=O)NO)c1ccccc1 | 36% | 0.9 µM | 1% | 1% | 14 µM | 0.43 µM | –
9 | CN(C)C(=O)[C@H](Cc1ccc(COc2ccccc2)cc1)NC(=O)C(=O)NO | 37% | 3 µM | 43% | 7% | – | 22 µM | –
10 | C[C@H](NC(=O)[C@H](Cc1ccc2ccccc2c1)NC(=O)C(=O)NO)c1ccccc1 | 37% | 0.5 µM | 4% | 5% | – | 1 µM | –
11 | O=C(NO)C(=O)N[C@@H](Cc1ccc(COc2ccccc2)cc1)C(=O)NO | 23% | – | 5% | 2% | – | – | –
12 | C[C@H](NC(=O)C(=O)NO)c1ccc2ccccc2c1 | 80% | – | 89% | 67% | – | – | –
13 | O=C(NO)C(=O)NCCN(C(=O)C(=O)NO)c1cccc2ccccc12 | 20% | 0.1 µM | 14% | 0% | – | – | –
14 | CN(C)C(=O)[C@H](Cc1ccccc1)NC(=O)C(=O)NO | 15% | 14 µM | 48% | 25% | 9.5 µM | 38 µM | –
15 | CNC(=O)[C@H](Cc1ccc(OCc2ccccc2)cc1)NC(=O)C(=O)NO | 53% | 2 µM | 4% | 1% | – | 1.5 µM | –
16 | C[C@H](NC(=O)[C@H](Cc1ccc(O)cc1)NC(=O)C(=O)NO)c1ccccc1 | 54% | 0.6 µM | 0% | 0% | – | 0.25 µM | –
17 | C[C@H](NC(=O)[C@H](Cc1ccc(NC(=O)OCc2ccccc2)cc1)NC(=O)C(=O)NO)c1ccccc1 | 76% | – | 32% | 22% | – | – | –

Row | SMILES | residual activity [1] | Ki [2] | residual activity (Neutrophil collagenase [3]) | residual activity [4] | Ki [5] | Ki (Neutrophil collagenase [6]) | inhibition [7]
18 | CN(C)C(=O)[C@@H](Cc1ccc(OCc2ccccc2)cc1)NC(=O)[C@H](Cc1ccccc1)NC(=O)C(=O)NO | 5% | 1 µM | 10% | 3% | 1.4 µM | – | –
19 | O=C(NO)C(=O)NCCc1c[nH]c2ccccc12 | 48% | 0.8 µM | 18% | 3% | – | – | –
20 | C[C@H](NC(=O)[C@H](Cc1ccc(NC(=O)Nc2ccccc2)cc1)NC(=O)C(=O)NO)c1ccccc1 | 74% | 0.8 µM | 6% | 5% | – | 1 µM | –
21 | O=C(NO)C(=O)NCCC(NC(=O)C(=O)NO)C1CCCCC1 (centres undefined) | 48% | – | 39% | 5% | – | – | –
22 | CC(NC(=O)[C@H](Cc1ccccc1)NC(=O)C(=O)NO)c1cccc2ccccc12 (some centres undefined) | 42% | – | 5% | 2% | – | – | –
23 | CC(C)C[C@H](NC(=O)C(=O)NO)C(=O)N(C)C | 61% | – | 72% | 55% | – | – | –
24 | CC(C)C[C@H](NC(=O)C(=O)NO)C(=O)N[C@@H](C)c1ccccc1 | 54% | 5.5 µM | 3% | 9% | 20 µM | 1.7 µM | –
25 | C[C@H](NC(=O)C(=O)NO)C(=O)N[C@@H](C)c1ccccc1 | – | 9 µM | 9% | 35% | 180 µM | 6 µM | 80%
26 | CCCCC(CC)COCCCNC(=O)C(=O)NO (centres undefined) | 14% | 0.25 µM | 12% | 3% | 9 µM | 7 µM | –
27 | CN(C)C(=O)[C@H](COCc1ccccc1)NC(=O)C(=O)NO | 41% | – | 56% | 40% | – | – | –
28 | CC(OCc1ccccc1)[C@H](NC(=O)C(=O)NO)C(=O)N(C)C (some centres undefined) | 66% | 4 µM | 67% | 18% | – | 75 µM | –
29 | CC(C)C[C@H](NC(=O)C(=O)NO)C(=O)N[C@H](C)c1ccccc1 | 79% | – | 74% | 60% | – | – | –
30 | O=C(NO)C(=O)NCCc1c[nH]c2ccc(Cl)cc12 | 35% | 0.35 µM | 15% | 2% | 35 µM | 14 µM | –
31 | C[C@H](NC(=O)[C@H](Cc1c[nH]c2ccccc12)NC(=O)C(=O)NO)c1ccccc1 | 36% | 0.1 µM | 2% | 1% | – | 0.4 µM | –
32 | C[C@H](NC(=O)[C@H](Cc1cccc2ccccc12)NC(=O)C(=O)NO)c1ccccc1 | – | 0.15 µM | 0% | 1% | 29 µM | 0.3 µM | –
33 | C[C@H](NC(=O)[C@H](CC(=O)OCc1ccccc1)NC(=O)C(=O)NO)c1ccccc1 | 53% | 0.6 µM | 1% | 3% | – | – | –
34 | C[C@H](NC(=O)[C@H](COCc1ccccc1)NC(=O)C(=O)NO)c1ccccc1 | 19% | 3.3 µM | 1% | 6% | 11 µM | – | –
